Publication PMC3169616, “Unique Residues Involved in Activation of the Multitasking Protease/Chaperone HtrA from Chlamydia trachomatis” (PLoS ONE, 2011)

Tested on: CtHtrA R373A/R299W
Assay: Oligomerisation assay, mutated protein
Assay type: biochemical, Chlamydia trachomatis
Settings: R373A/R299W mutant, 10 mins incubation
From the text: This activation was very similar to that observed for CtHtrA, and was the only condition during which any of the mutated proteins oligomerised in a similar profile to CtHtrA.
The oligomerisation of HtrA into 12- and 24-mer complexes has been independently detected for E. coli HtrA (DegP). The oligomerisation of HtrA (DegP) was triggered by peptides from digested ß-casein [18]. Assays to detect whether CtHtrA and site directed mutant protein oligomerisation was triggered by substrates were conducted essentially as previously described (Merdanovic et al., 2010). Briefly, 2 mg/ml protein solutions in 100 mM sodium phosphate buffer pH 7.0 were pre-incubated to the required temperature. The ligands (activator peptide, or insulin) were added and at 10 min, and the proteins were fixed using 0.5% glutaraldehyde. Samples were fixed at room temperature for 2 min prior to addition of 1 M Tris pH 7.5 to remove any excess glutaraldehyde. Samples were incubated for another 10 min at room temperature prior to addition of SDS PAGE reducing loading buffer. The protein samples were examined on 3–8% TrisAcetate gradient polyacrylamide gels (Novex, Invitrogen) by silver staining. The proteins used in this study were not initially denatured by treatment with urea as, the refolding, formation of oligomers, and protease activity was never successfully detected with denatured CtHtrA. […]

## H-VLGPVRGPFPIIV-OH [Act1]
  oligomer formation induced by activator: induced R373A/R299W 24-mer formation
